Results published in US20220380348A1, “AXL INHIBITOR FORMULATIONS” (Sumitomo Dainippon Pharma Oncology, Inc., priority 2019, published 2022).
Like-named read-outs stand apart in the source and are kept apart here.

Legend:
[1] = Pharmacokinetic testing of salt forms, oral dosing in rats (Example 5); assay type: in vivo; conditions: fasted male Sprague-Dawley rats, mean values
[2] = Solid state stability at 40° C./75% RH for 3 weeks (HPLC purity, form change); assay type: physicochemical; conditions: for chemical stability (HPLC purity change, in words): 3 weeks at 40° C. and 75% relative humidity; for Form Change at 3 weeks / HPLC Purity at 3 weeks: 3 weeks under 40° C./75% RH; for Initial HPLC Purity: before storage
Protocol: Agilent 1260 HPLC was utilized and detailed chromatographic conditions for purity and solubility measurement are listed in Table 15 below.
The table below summarizes the characterization and solid state stability results observed for FB and Forms A, B, and D. Samples were prepared and data was obtained according to the procedures and processes listed above unless otherwise specified. More procedures, processes, and results are listed below in Table 16.

[3] = Dynamic Vapor Sorption (DVS), hygroscopicity/water uptake; assay type: physicochemical; conditions: for Hygroscopicity: DVS up to 80% RH at 25° C.; for water uptake at 80% RH: DVS; for water uptake at 80% RH / Form change (FC) after DVS: 25° C.; for Form change (FC) after DVS: at the end of the DVS test, up to 80% RH
Protocol: The Dynamic Vapour Sorption studies were performed using a Surface Measurement Systems Ltd. DVS-1 No Video, equipment #2126. The sample is loaded into balance pan, typically 20-30 mg, and equilibrated at 0% RH. […] After completion of the sorption cycle, the sample was dried using the same method. The software used for data collection is DVSWin v3.01 No Video. Data analysis is performed using DVS Standard Analysis Suite v6.3.0 (Standard).

[4] = Kinetic solubility in bio-relevant buffers (FaSSIF, FeSSIF, SGF); assay type: physicochemical; conditions: 37° C.
[5] = pH solubility in pH 2, 4, 6, 8 and 10 buffers; assay type: physicochemical; conditions: 37° C.; for Form change (FC) of residual solid, pH 4.0: pH 4.0 buffer; for Form change (FC) of residual solid, pH 6.0: pH 6.0 buffer; for Form change (FC) of residual solid, pH 8.0: pH 8.0 buffer; for Form change (FC) of residual solid, pH 10.0: pH 10.0 buffer
[6] = Stability studies of crystalline forms (Table 17, stability by HPLC); assay type: physicochemical; conditions: for Stability by HPLC (in words): stability studies of Table 17; for Stability Results, 40° C.: stored at 40° C.; for Stability Results, 40° C./75% RH: stored at 40° C./75% RH; for Stability Results, 60° C.: stored at 60° C.; for Stability Results, 60° C./75% RH: stored at 60° C./75% RH
[7] = Moisture sorption isotherm of crystalline forms; assay type: physicochemical; conditions: for crystal form by XRPD after the moisture absorption/desorption cycle: XRPD before and after moisture sorption isotherm
[8] = Salt screening, stability of salt forms; assay type: physicochemical; conditions: salt screening of Compound 1
Protocol: The salt screen was performed using the Crystal16 equipment.

[9] = dose mg/kg: Compound 1 18.2, Phosphate 14.3, Tartrate 18.7, Malate 18.6, Succinate 18.7, Benzenesulfonate 17.6

## CN1CCN(Cc2ccc(Nc3ncc(Cl)c(Nc4ccccc4S(=O)(=O)N(C)C)n3)cc2)CC1 [Compound 1, 2-((5-chloro-2-((4-((4-methylpiperazin-1-yl)methyl)phenyl)amino)pyrimidin-4-yl)amino)-N,N-dimethylbenzenesulfonamide]
[1]; rat, plasma, 18.2 mg/kg, dose mg/kg: Compound 1 18.2, Phosphate 14.3, Tartrate 18.7, Malate 18.6, Succinate 18.7, Benzenesulfonate 17.6
  bioavailability: 26.9%
[1]; rat, plasma, 18.2 mg/kg, dose mg/kg: Compound 1 18.2, Phosphate 14.3, Tartrate 18.7, Malate 18.6, Succinate 18.7, Benzenesulfonate 17.6, read-out: AUC0-24 hours
  AUC(0-t): 458 ng·h/mL
[1]; rat, plasma, 18.2 mg/kg, dose mg/kg: Compound 1 18.2, Phosphate 14.3, Tartrate 18.7, Malate 18.6, Succinate 18.7, Benzenesulfonate 17.6, read-out: Cmax
  Cmax: 116 ng/mL
[1]; rat, plasma, 18.2 mg/kg, dose mg/kg: Compound 1 18.2, Phosphate 14.3, Tartrate 18.7, Malate 18.6, Succinate 18.7, Benzenesulfonate 17.6, read-out: Tmax
  Tmax: 50 min
[2]
  chemical stability (HPLC purity change, in words): no significant HPLC purity decrease
  Form Change at 3 weeks: No
  HPLC Purity at 3 weeks: 98.6 area %
  Initial HPLC Purity: 98.3 area %
[3]; listed as Free Base
  Hygroscopicity: Non-hygroscopic/
  water uptake at 80% RH: 0.07%
  Form change (FC) after DVS: No
[3]; listed as free base
  Hygroscopicity: non-hygroscopic
  water uptake at 80% RH: less than 0.2%
  Form change (FC) after DVS: no form change
[4]; FaSSIF, 24 hours
  Form change (FC) of residual solid, FaSSIF: No
[4]; FeSSIF, 24 hours
  Form change (FC) of residual solid, FeSSIF: No
[4]; SGF, 24 hours
  Form change (FC) of residual solid, SGF: No
[5]; pH 2.0 buffer, 24 hours
  Form change (FC) of residual solid, pH 2.0: Yes
[5]; 24 hours
  Form change (FC) of residual solid, pH 4.0: Yes
  Form change (FC) of residual solid, pH 6.0: No
  Form change (FC) of residual solid, pH 8.0: No
  Form change (FC) of residual solid, pH 10.0: No

## CN1CCN(Cc2ccc(Nc3ncc(Cl)c(Nc4ccccc4S(=O)(=O)N(C)C)n3)cc2)CC1.O=C(O)C(O)C(O)C(=O)O.O=C(O)C(O)C(O)C(=O)O [Form A, 2-((5-chloro-2-((4-((4-methylpiperazin-1-yl)methyl)phenyl)amino)pyrimidin-4-yl)amino)-N,N-dimethylbenzenesulfonamide di-tartrate salt]
[2]
  chemical stability (HPLC purity change, in words): no significant HPLC purity decrease
  Form Change at 3 weeks: No
  HPLC Purity at 3 weeks: 99.7 area %
  Initial HPLC Purity: 99.6 area %
[3]; di-tartrate salt
  water uptake at 80% RH: 4.6%
[3]
  Form change (FC) after DVS: No
[5]; pH 2, 4 and 6 buffers
  pH solubility compared between polymorphs (in words): higher solubility than other polymorphs
[5]; 24 hours
  Form change (FC) of residual solid, pH 4.0: Yes
  Form change (FC) of residual solid, pH 6.0: Yes
  Form change (FC) of residual solid, pH 8.0: Yes
  Form change (FC) of residual solid, pH 10.0: Yes
[6]
  Stability Results, Initial: 99.3%
  Stability Results, 40° C.: 99.3%
  Stability Results, 40° C./75% RH: 99.3%
  Stability Results, 60° C.: 99.3%
  Stability Results, 60° C./75% RH: 99.3%
[6]; di-tartrate salt
  Stability by HPLC (in words): No significant changes
[6]; listed as A, di-tartrate salt
  Stability by HPLC (in words): Stable
[7]
  Moisture sorption isotherm (in words): hygroscopic
  crystal form by XRPD after the moisture absorption/desorption cycle: maintained

## CN1CCN(Cc2ccc(Nc3ncc(Cl)c(Nc4ccccc4S(=O)(=O)N(C)C)n3)cc2)CC1.O=C(O)C(O)C(O)C(=O)O [Form D, 2-((5-chloro-2-((4-((4-methylpiperazin-1-yl)methyl)phenyl)amino)pyrimidin-4-yl)amino)-N,N-dimethylbenzenesulfonamide mono-tartrate salt]
[2]
  chemical stability (HPLC purity change, in words): no significant HPLC purity decrease
  Form Change at 3 weeks: No
  HPLC Purity at 3 weeks: 98.3 area %
  Initial HPLC Purity: 98.8 area %
[3]; mono-tartrate salt
  water uptake at 80% RH: 5.2%
  Form change (FC) after DVS: form change observed and Yes
[4]; FaSSIF
  Kinetic solubility in FaSSIF compared between forms (in words): lower solubility than other Forms A and B
[4]; FaSSIF, 24 hours
  Form change (FC) of residual solid, FaSSIF: Yes
[5]; 24 hours
  Form change (FC) of residual solid, pH 4.0: Yes
  Form change (FC) of residual solid, pH 6.0: Yes
  Form change (FC) of residual solid, pH 8.0: Yes
  Form change (FC) of residual solid, pH 10.0: Yes
[6]
  Stability Results, Initial: 98.4%
  Stability Results, 40° C.: 98.2%
  Stability Results, 40° C./75% RH: 98.4%
  Stability Results, 60° C.: 98.2%
  Stability Results, 60° C./75% RH: 98.2%
[6]; listed as D, mono-tartrate salt
  Stability by HPLC (in words): Stable
[6]; mono-tartrate salt
  Stability by HPLC (in words): No significant changes
[7]
  Moisture sorption isotherm (in words): hygroscopic
  crystal form by XRPD after the moisture absorption/desorption cycle: transformed to the other forms

## CN1CCN(Cc2ccc(Nc3ncc(Cl)c(Nc4ccccc4S(=O)(=O)N(C)C)n3)cc2)CC1.O=C(O)C[C@H](O)C(=O)O [Malate Salt]
[1]; [9]
  AUC0-24 hours: 515 ng·h/mL
  Cmax: 134 ng/mL
  Tmax: 30 min

## CN1CCN(Cc2ccc(Nc3ncc(Cl)c(Nc4ccccc4S(=O)(=O)N(C)C)n3)cc2)CC1.O=P(O)(O)O [Phosphate Salt]
[8]
  stability of the salt form (in words): undesirable stability characteristics
